From patent US20260015436A1, “ANTIBODIES FOR CHELATED RADIONUCLIDES” (Hoffmann-La Roche Inc., priority 2018, published 2026)

Tests used:
BxPC3 tumors [1] = test: Protocol 93a: efficacy and biodistribution of CEA-PRIT, BxPC3 model; type: in vivo, mice; conditions: day 47; 30+30 μCi
Method: (§1) The bispecific antibodies were compared side-by-side in single- and double-cycle treatment regimens.
(§2) Groups A-G represent the treated mice that were followed up for assessment of efficacy, whereas groups H-L comprise mice that were sacrificed for biodistribution purposes 24 h after their last ^212Pb-DOTAM injection.
For protocol 93a, mice (age 7 weeks) were injected s.c. into the right flank with 5×10^6 BxPC3 cells (passage 33) in 100 μL RPMI/Matrigel. Twelve days after tumor cell injection, mice were sorted into experimental groups with an average tumor volume of 235 mm^3.
(§3) To minimize re-ingestion of radioactive urine/feces after treatment cycle 1, cages were changed 4 hours after ^212Pb-DOTAM administration, and then again at 24 h p.i. […]
(§4) The tumor development in the mice was followed through repeated calipering three times a week. […] The body weight of the animals was measured repeatedly in the same fashion. […]
(§5) Mice in groups H, J, and L were sacrificed and necropsied 24 hours after their first and only injection of ^212Pb-DOTAM; groups I and K were sacrificed and necropsied 24 hours after their second ^212Pb-DOTAM injection. […] Collected samples were weighed and measured for radioactivity, and the percent injected dose per gram of tissue (% ID/g) subsequently calculated, including corrections for decay and background.

BxPC3 tumors [2] = test: Protocol 146: ^212Pb-DOTAM biodistribution and absorbed dose estimation after PRIT; type: in vivo, SCID mice; conditions: for Mean absorbed dose, RBE = 1 / Mean absorbed dose, RBE = 5: 20 μCi pretargeted ^212Pb-DOTAM, tumor-bearing SCID
Method: Protocol 146 was designed to provide in vivo ^212Pb-DOTAM distribution data after PRIT for estimations of the absorbed radioactive dose to tumor and normal tissues, in SCID mice carrying s.c. BxPC3 tumors. The quenching of ^212Pb-DOTAM was performed using Ca (see example 34).
Pretargeting was performed by injection of CEA-DOTAM BsAb, followed 7 days later by the CA. After 24 hours, the ^212Pb-DOTAM was administered. Groups of mice were sacrificed at multiple time points from 5 minutes to 48 hours after the radioactive injection, and blood and organs harvested for radioactive measurement. Excrements were sampled at selected time points by use of metabolic cages to assess the excretion rate of the radioactive compound. Absorbed doses were finally calculated through established methods using the resulting time-activity curves.
Solid xenografts were established by s.c. injection of BxPC3 cells into SCID mice (Envigo) aged 8 weeks.
Mice in group E and F were individually housed (i.e. one mouse per cage) in grilled-floor metabolic cages. Urine and feces were collected from each cage 2, 6, and 24 hours after the radioactive injection, and the individual samples subsequently measured for radioactivity. Mice in group F were transferred to a regular cage 24 hours p.i.
Blood/serum was collected from all mice through retro-orbital bleeding before termination. After euthanasia, the following additional organs and tissues were harvested for radioactivity measurement and calculation of % ID/g: bladder, uterus, small intestine, colon, spleen, pancreas, kidneys, stomach, liver, lung, heart, brain, femoral bone, skin, muscle, abdominal fat, tail, and tumor.
Absorbed doses were calculated following the formalism outlined in Pamphlet No. 21 from the Medical Internal Radiation Dose (MIRD) Committee (Bolch W E, Eckerman K F, Sgouros G, and Thomas S R. J Nucl Med 2009; 50:477-484).
Formally, the absorbed dose D(rT) in a target tissue or region rT is calculated as the time-integral of the activity A(rS, t) multiplied by the absorbed dose rate per unit activity S(rT ←rS), summed over all source regions rS. Given that the vast majority of energy released by the ^212Pb decay chain comes from alpha radiation and furthermore by the much higher biological effectiveness of alpha radiation (as characterized by the relative biological effectiveness, RBE) two approximations were made: • 1. the energy is absorbed locally due to the short range of the alpha particles, which means that only the term S(rT←rT) is considered, and • 2. the contribution from beta and gamma radiation is neglected.
With Δα being the energy released by alpha decays, or rather the sum of the mean energies released by alpha decays in the decay chain of ^212Pb, here expressed in units J/(μCi·h), the absorbed dose in a target tissue or region rT is calculated by the formula: […]
The calculations are based on the composite (average) decay-corrected radioactive concentration at time t, expressed as [% ID/g]t. In a first step, these are transformed into radioactive concentrations as μCi per kg tissue weight for the target tissue rT:
A0[μCi]is the injected activity and λ is the exponential decay rate for ^212Pb, 0.0651 h^−1 (corresponding to the 10.6-hour half-life).
In a second step, the radioactive concentration was integrated over time for each tissue. This was achieved using the “Linear Log Trapezoidal calculation method” in the pharmacokinetic software Phoenix WinNonlin 6.4 (Certara USA, Inc., 100 Overlook Center, Suite 101, Princeton, NJ 08540 USA). The model type “Plasma” was used with uniform weighting.
In the final step, absorbed doses were calculated by multiplying the time integrals of the radioactive concentration by the energy release Δα=170·10^−6J/(μCi·h).

LS174T tumors = test: Protocol 93b: efficacy and biodistribution of CEA-PRIT, LS174T model; type: in vivo, mice; conditions: day 22; 30+30 μCi
Method: as §1, §2
For protocol 93b, mice (age 9 weeks) were injected s.c. into the right flank with 1×10^6 LS174T cells (passage 26) in 100 μL DMEM/Matrigel. Three days after tumor cell injection, mice were sorted into experimental groups with an average tumor volume of 150 mm^3.
as §3, §4, §5

NC(=O)CN1CCN(CC(N)=O)CCN(CC(N)=O)CCN(CC(N)=O)CC1.[212Pb+2] [^212Pb-DOTAM]
tumor growth inhibition (TGI) compared with PBS (BxPC3 tumors [1]): 15.8%
accumulation of radioactivity in tumor (BxPC3 tumors [2]; 5 minutes after injection, pretargeted by CEA-DOTAM BsAb): 17 % ID/g
Mean absorbed dose, RBE = 1 (BxPC3 tumors [2]; Blood): 0.72 Gy
Mean absorbed dose, RBE = 5 (BxPC3 tumors [2]; Blood): 3.60 Gy
Mean absorbed dose, RBE = 1 (BxPC3 tumors [2]; Brain): 0.04 Gy
Mean absorbed dose, RBE = 5 (BxPC3 tumors [2]; Brain): 0.19 Gy
Mean absorbed dose, RBE = 1 (BxPC3 tumors [2]; Colon): 0.43 Gy
Mean absorbed dose, RBE = 1 (BxPC3 tumors [2]; Femoral bone): 0.27 Gy
Mean absorbed dose, RBE = 1 (BxPC3 tumors [2]; Heart): 0.33 Gy
Mean absorbed dose, RBE = 1 (BxPC3 tumors [2]; Liver): 0.22 Gy
Mean absorbed dose, RBE = 1 (BxPC3 tumors [2]; Muscle): 0.29 Gy
Mean absorbed dose, RBE = 1 (BxPC3 tumors [2]; Pancreas): 0.36 Gy
Mean absorbed dose, RBE = 5 (BxPC3 tumors [2]; Pancreas): 1.80 Gy
Mean absorbed dose, RBE = 5 (BxPC3 tumors [2]; Serum): 8.20 Gy
Mean absorbed dose, RBE = 1 (BxPC3 tumors [2]; Skin): 0.47 Gy
Mean absorbed dose, RBE = 1 (BxPC3 tumors [2]; Small intestine): 0.22 Gy
Mean absorbed dose, RBE = 1 (BxPC3 tumors [2]; Spleen): 0.27 Gy
Mean absorbed dose, RBE = 1 (BxPC3 tumors [2]; Stomach): 0.24 Gy
Mean absorbed dose, RBE = 5 (BxPC3 tumors [2]; Stomach): 1.20 Gy
Mean absorbed dose, RBE = 1 (BxPC3 tumors [2]; Tail): 0.54 Gy
Mean absorbed dose, RBE = 1 (BxPC3 tumors [2]; Uterus): 0.61 Gy
TGI compared with PBS (LS174T tumors): 64.7%
